# Patent US9408859B2, “Pharmaceutical compositions useful for preventing and treating cancer” (Mitotech SA, priority 2007, dated 2016)
# Where “and” joins values, the source holds several entries; their conditions need not be identical. Identical values can stand only once.
# Key:
# [1] = system: A-431 human skin cancer heteroxenografts; assay: Anti-tumoral activity on A-431 heteroxenografts (tumor volume, T/C, histology); type: in vivo, mouse
# Method: Before administration, SkQ1 was diluted with sterile physiological saline up to 0.5 μM and 5.0 μM. The preparation was injected intraperitoneally as single doses of 5.0 nM/kg and 50.0 nM/kg, 0.2 ml/mouse.
# (1973) 51:1417-1423. • Morphology: epithelial. • Cultivation method: monolayer. • Cultivation conditions: 10% bovine embryonal serum DMEM culture. • Procedure of seeding: cell removal using 0.25% trypsin, 0.02% versene (3:7), ratio of seeding 1:3 1:6, optimal density 2.04.0×10^4 cell per sm^2 cryopreservation media, 10% DMSO, 1.0×10^6 cells/ml per ampoule. • Viability after cryopreservation: 83% (trypan blue staining on zero passage) • Contamination control: no bacteria, fungi or micoplasma detected • Genetic identity control: karyological, enzymatic (LDH, G6PDH) analysis. • Karyology: 2n-46, chromosome variability limit 5777, chromosome modal number 6871 • Tumorigenicity: tumorigenic in HIV mice and in mice treated with antithymocyte serum. • Other features: large number of receptors to epidermal growth factor. • Application area: growth factors study, cell biology. • Collection: ATCC CRL 1555; ECACC 85090402; INC RAS.
# A-431 cells were grown on RPMI-1640 medium that contained 10% calf serum and 1 mM glutamine. Cells were transferred to a flask at a ratio of 1:2 or 1:3 from full monolayer. The medium was changed every 2 to 3 days. A cultivated cell suspension was then used to engraft HIV mice.
# The experiment was performed using HIV female mice Balb/c nude at the age 8 to 9.5 weeks. All mice were raised in GU RONC. Mice were managed in specialized virus-free chamber with sterile aeration, fed with sterile briquette food and water under normalized temperature condition and moisture.
# Cells of A-431 cell line were hypodermically implanted only once in number 1.7-1×10^6 per mouse in 0.2 ml of RPMI-1640 nutrition medium.
# Anti-tumoral effect estimation was carried out using common rate T/C (Treatment/Control), evaluated as a ratio of average tumor volumes in treated and control groups given in percents. Rate was taken evaluated using the following formula T/C %=[…],
# where Vo and Vk are the mean volumes of tumor in treated and control groups thereof. Thus, in the control group, T/C=100%. Mean volume was evaluated using the following formula: Vm (mm^3)=axbxc. T/C≦42% was taken as a minimal efficiency criterion (Anticancer Drug Development Guide (1997) (ed. B. A. Teicher) Humana Press, Totowa, N.J., pp. 101-125). To analyze the speed of growth (standarcy value), a ratio of mean tumor relative to the first one taken was determined as follows.
# Evaluation started after the appearance of a palpable tumor (9 days after implantation). After that multiple tumor volume evaluations were performed until the 20th day after transplantation. The first evaluation of treated groups was performed during treatment, and the next three evaluations were performed during 6 days after end of the treatment. Tumor evaluations were stopped on the 21st to the 24th day after the first mouse died in three experiments.
# Mice were sacrificed by ether anesthesia overdose. An autopsy was performed, and tumors were then extracted and assayed histologically and immunohistochemically. Tumors were fixed in 10% formaldehyde and set into paraffin wax. Histological assays were carried out on tumor histological sections, stained with hematoxylin and eosin. The number of microvessels was examined by standard immunological method using antibodies to CD34 antigen. Presence of vessel mimicry was estimated by tumor section staining with Schiffs reagent.
# [2] = system: Ehrlich's carcinoma; assay: Anti-tumoral effect on hypodermic Ehrlich's carcinoma; type: in vivo, mouse; details: 0.5 nM/kg ip
# Method: The experiment was performed according to the methods described in Example 2.
# Injection of the preparation started 48 hours after transplantation and proceeded during 5, 10, 15, and 30 days. For tumor treatment efficiency, estimations of tumor volumes were evaluated many times after end of short courses or once after end of the 30-day course. […] The results were then statistically calculated using confidence intervals of mean values of compared values, difference stated reliable if p<0.05.
# [3] = system: Mouse Ras-transformed fibroblast cells; assay: Effect on morphology and adherence of Ras-transformed cells; type: cell-based
# Method: The experiment was carried out using cells, transformed with genetic construct, expressing oncogene RAS, and thus modeling conditions of cells underwent cancerous transformation. (see, model description in Levina, et al. (1996), Exp. Cell. Res., November 25; 229(1):159-165).
# Mouse Ras-transformed fibroblast cells had strongly expressed changed morphology (FIG. 1), one close to morphology of metastasizing cancerous cells (decrease in surface square, cell elongation). […] Cells were poorly adherent and spread-eagled what led to monolayer structure disorder.
# However incubation with SkQ1 led to significant changes in cells morphology (FIG. 1). […] Morphological changes correlated with actinic fibrils increase in content, focal contact reinforcement and cell better adherence to the surface.
# [4] = system: human rhabdomyosarcoma cell line (RD); assay: Apoptosis in RD cells (Hoechst staining, propidium iodide flow cytometry); type: cell-based; details: 20 nM SkQ1 for 24 hours; flow cytometry
# Method: To determine the viability of the cells, chromatine condensation and fragmentation was analyzed in similarly-treated cells (20 nM SkQ or 1 mM NAC or 100 mM Trolox for 24 hours and 1 μm FCCP one hour before SkQ1 where indicated) after staining with Hoechst 3342 (GenScript, Cat. No. L00309, performed according to manufacture manual http://www.genscript.com/tech_guide/TM0361.pdf). The cells were then examined using an Axiovert fluorescent microscope equipped with objectives 20× (dry) and 100× (oil immersion Neofluar) (Carl Zeiss).
# Further evidence of apoptosis was obtained by analysis of DNA content in the cellular population using flow cytometry. Cells were incubated with 0.05% ethanol was added (control) or with 20 nM SkQ1 for 24 hours, and then fixed and stained with propidium iodide (5 μM). They were then analyzed by flow cytometry using a FC-500 FACS (Beckman Coulter, Inc., Brea, Calif.).
# [5] = Experiment 1 material, Group 2, 5.0 nM/kg
structure (smiles),measurement,setting,value
CC1=C(C)C(=O)C(CCCCCCCCCC[P+](c2ccccc2)(c2ccccc2)c2ccccc2)=CC1=O [SkQ1],T/C,"[1]; Experiment 1, 5.0 nM/kg ip daily day 1-14, 14th day",74%
same,T/C,"[1]; Experiment 1, 5.0 nM/kg ip daily day 1-14, 17th day",67%
same,T/C,"[1]; Experiment 1, 5.0 nM/kg ip daily day 1-14, 20th day",73%
same,T/C,"[1]; Experiment 1, 5.0 nM/kg ip daily, 9th day (after 8 injections)",63%
same,T/C,"[1]; Experiment 1, 50.0 nM/kg ip daily day 1-14, 9th day",159%
same,T/C,"[1]; Experiment 1, 50.0 nM/kg ip daily day 1-14, 14th day",160%
same,T/C,"[1]; Experiment 1, 50.0 nM/kg ip daily day 1-14, 17th day",134%
same,T/C,"[1]; Experiment 1, 50.0 nM/kg ip daily day 1-14, 20th day",146%
same,Tumor differentiation (histological assay),"[1]; Experiment 1 material, 5.0 nM/kg, vs control",partial tumor differentiation
same,"Number of microvessels in tumors (CD34, hot spots)","[1]; Experiment 1 material, 23rd day, 9th day after end of treatment, three groups (control, 5.0 and 50.0 nM/kg)",did not statistically differ
same,Microvessel diameter,[1]; [5],smaller diameter than in the control group
same,Signs of vasculogenic mimicry (PAS staining),[1]; [5],no such signs were seen
same,T/C,"[1]; Experiment 2, 5.0 nM/kg ip daily day 1-8, 8th day",61%
same,T/C,"[1]; Experiment 2, 5.0 nM/kg ip daily day 1-8, 14th day",72%
same,T/C,"[1]; Experiment 2, 5.0 nM/kg ip daily day 1-8, 17th day",96%
same,T/C,"[1]; Experiment 2, 5.0 nM/kg ip daily day 1-8, 24th day",101%
same,T/C,"[1]; Experiment 3, 5.0 nM/kg ip daily day 1-14, immediately after the end of the treatment",41% and 42%
same,inhibition of growth,"[1]; long-termed injection, single doses 5.0 nM/kg, in some cases",50%
same,tumor volume,"[2]; 5-day course, days 2-7, day 7 after transplantation",251 mm³
same,TGS%,"[2]; 5-day course, day 7",40%
same,TGS%,"[2]; 5-day course, day 14",23%
same,tumor volume,"[2]; 5-day course, day 14",547 mm³
same,TGS%,"[2]; 5-day course, day 21",16%
same,tumor volume,"[2]; 5-day course, day 21",1000 mm³
same,tumor volume,"[2]; 10-day course, days 2-13, day 7",228 mm³
same,TGS%,"[2]; 10-day course, day 7",45%
same,TGS%,"[2]; 10-day course, day 14",34%
same,tumor volume,"[2]; 10-day course, day 14",474 mm³
same,TGS%,"[2]; 10-day course, day 21",28%
same,tumor volume,"[2]; 10-day course, day 21",853 mm³
same,tumor volume,"[2]; 15-day course, days 2-16, day 7",259 mm³
same,TGS%,"[2]; 15-day course, day 7",38%
same,TGS%,"[2]; 15-day course, day 14",36%
same,tumor volume,"[2]; 15-day course, day 14",459 mm³
same,TGS%,"[2]; 15-day course, day 21",29%
same,tumor volume,"[2]; 15-day course, day 21",838 mm³
same,Mean cell surface square value,[3]; Ras-transformed fibroblasts incubated with SkQ1,increased manifold
same,Monolayer formation,[3]; Ras-transformed fibroblasts treated with SkQ1,formed monolayers similar to those of normal fibroblasts
same,"sub-G1 peak (DNA content, propidium iodide)",[4],accumulation of apoptotic bodies
